According to patent publication US10667517B2, “2-(Het)aryl-substituted fused heterocycle derivatives as pesticides” (BAYER CROPSCIENCE AKTIENGESELLSCHSAFT, priority 2015, dated 2020):

Assay: log P (neutral), HPLC on reversed-phase column (C 18), LC-MS neutral range
Assay type: physicochemical
Conditions: for chromatographic logP: reversed-phase HPLC column (C 18), pH 7.8, HPLC reversed-phase C 18, 55° C.
Description: Temperature: 55° C. […] Called log P (neutral) in the table.

[1] = pH 7.8, ammonium hydrogencarbonate/acetonitrile
[2] = HPLC reversed-phase C 18, 55° C., pH 7.8, ammonium hydrogencarbonate/acetonitrile

| chromatographic logP [1] | Structure (SMILES) | further results |
| --- | --- | --- |
| 1.24 | CC(=O)c1nc(F)ccc1F [1-(3,6-Difluoropyridin-2-yl)ethanone] | – |
| 1.93 | O=C(CBr)c1nc(F)ccc1F [2-Bromo-1-(3,6-difluoropyridin-2-yl)ethanone] | log P (neutral) [2]: 1.95 |
| 1.05 | CON(C)C(=O)c1nc(F)ccc1F [3,6-Difluoro-N-methoxy-N-methylpyridine-2-carboxamide] | – |
| 1.79 | CCSc1ccc(Br)nc1C(=O)O [6-Bromo-3-(ethylsulphanyl)pyridine-2-carboxylic acid] | – |
| 3.44 | CCS(=O)(=O)c1ccc(-n2cc(Cl)cn2)nc1-c1cn2cc(C(F)(F)F)ncc2n1 [Example I-18, 2-[6-(4-Chloro-1H-pyrazol-1-yl)-3-(ethylsulphonyl)pyridin-2-yl]-6-(trifluoromethyl)imidazo[1,2-a]pyrazine] | – |
| 2.44 | CCS(=O)(=O)c1ccc(NC(C)=O)nc1-c1nc2cc(C(F)(F)F)cnc2o1 [Example I-19, N-{5-(Ethylsulphonyl)-6-[6-(trifluoromethyl) [1,3]oxazolo[5,4-b]pyridin-2-yl]pyridin-2-yl}acetamide] | – |
| – | CCS(=O)(=O)c1ccc(NC2COC2)nc1-c1nc2cc(C(F)(F)F)cnc2n1C [Example I-26] | log P (neutral) [2]: 2.27 |
| – | CCS(=O)(=O)c1ccc(-n2nccn2)nc1-c1cn2cnc(C(F)(F)F)cc2n1 [Example I-27] | log P (neutral) [2]: 2.28 |
| – | CCS(=O)(=O)c1ccc(-n2cncn2)nc1-c1cn2cnc(C(F)(F)F)cc2n1 [Example I-28] | log P (neutral) [2]: 2.19 |
| 2.36 | CCS(=O)(=O)c1ccc(C(=O)NC)nc1-c1nc2cc(C(F)(F)F)cnc2n1C [Example I-34, 5-(Ethylsulphonyl)-N-methyl-6-[3-methyl-6-(trifluoromethyl)-3H-imidazo[4,5-b]pyridin-2-yl]pyridine-2-carboxamide] | – |
| 3.38 | CCS(=O)(=O)c1ccc(-n2cc(Cl)cn2)nc1-c1nc2cc(C(F)(F)F)nnc2n1C [Example I-35, 6-[6-(4-Chloropyrazol-1-yl)-3-ethylsulphonyl-2-pyridyl]-7-methyl-3-(trifluoromethyl)imidazo[4,5-c]pyridazine] | – |
| 1.96 | CCS(=O)(=O)c1ccc(C(=O)NC)nc1-c1nc2cc(C(F)(F)F)nnc2n1C [Example I-39, 5-(Ethylsulphonyl)-N-methyl-6-[7-methyl-3-(trifluoromethyl)-7H-imidazo[4,5-c]pyridazin-6-yl]pyridine-2-carboxamide] | – |
| – | CCS(=O)(=O)c1ccc(NC(=O)C(F)(F)F)nc1-c1nc2cc(C(F)(F)F)cnc2o1 [Example I-40] | log P (neutral) [2]: 3.09 |
| – | CCS(=O)(=O)c1ccc(-n2cc(Cl)cn2)nc1-c1nc2cc(C(F)(F)F)cnc2o1 [Example I-41] | log P (neutral) [2]: 4.01 |
| – | CCS(=O)(=O)c1ccc(-n2ccc(C(F)(F)F)n2)nc1-c1nc2cc(C(F)(F)F)cnc2o1 [Example I-42] | log P (neutral) [2]: 4.17 |
| – | CCS(=O)(=O)c1ccc(-n2cncn2)nc1-c1nc2cc(C(F)(F)F)nnc2n1C [Example I-43] | log P (neutral) [2]: 2.08 |
| – | CCS(=O)(=O)c1ccc(-n2nccn2)nc1-c1nc2cc(C(F)(F)F)nnc2n1C [Example I-44] | log P (neutral) [2]: 2.21 |
| – | CCS(=O)(=O)c1ccc(-n2ccnc2)nc1-c1cn2cnc(C(F)(F)F)cc2n1 [Example I-45] | log P (neutral) (pH 7.8): 2.07 |

| chromatographic logP [1] | Structure (SMILES) | further results |
| --- | --- | --- |
| – | CCS(=O)(=O)c1ccc(-n2cccn2)nc1-c1cn2cnc(C(F)(F)F)cc2n1 [Example I-46] | log P (neutral) [2]: 2.58 |
| 2.83 | Cn1c(-c2nc(F)ccc2F)nc2cc(C(F)(F)F)ccc21 [IX-1, 2-(3,6-Difluoropyridin-2-yl)-1-methyl-5-(trifluoromethyl)-1H-benzimidazole] | – |
| 2.72 | Cn1c(-c2nc(F)ccc2F)nc2cc(C(F)(F)F)cnc21 [IX-2, 2-(3,6-Difluoropyridin-2-yl)-3-methyl-6-(trifluoromethyl)-3H-imidazo[4,5-b]pyridine] | – |
| 3.22 | Cn1c(-c2nc(Cl)ccc2Cl)nc2cc3c(cc21)OC(F)(F)O3 [IX-3, 6-(3,6-Dichloro-2-pyridyl)-2,2-difluoro-7-methyl-[1,3]dioxolo[4,5-f]benzimidazole] | – |
| 3.2 | FC1(F)Oc2cc3nc(-c4nc(Cl)ccc4Cl)[nH]c3cc2O1 [IX-4, 6-(3,6-Dichloro-2-pyridyl)-2,2-difluoro-5H-[1,3]dioxolo[4,5-f]benzimidazole] | – |
| 2.02 | Fc1ccc(F)c(-c2cn3cnc(C(F)(F)F)cc3n2)n1 [IX-5, 2-(3,6-Difluoropyridin-2-yl)-7-(trifluoromethyl)imidazo[1,2-c]pyrimidine] | – |
| 2.65 | Cn1c(-c2nc(Cl)ccc2Cl)nc2cc(C(F)(F)F)nnc21 [IX-7, 6-(3,6-Dichloro-2-pyridyl)-7-methyl-3-(trifluoromethyl)imidazo[4,5-c]pyridazine] | – |
| 5.27 | CCSc1ccc(Br)nc1C(=O)Nc1cc(C(F)(F)F)cnc1Cl [LXIX-1, 6-Bromo-N-[2-chloro-5-(trifluoromethyl)pyridin-3-yl]-3-(ethylsulphanyl)pyridine-2-carboxamide] | – |
| 4 | CCSc1ccc(SCC)c(-c2cn3cc(C(F)(F)F)ncc3n2)n1 [LXXI-1, 2-[3,6-Bis(ethylsulphanyl)pyridin-2-yl]-6-(trifluoromethyl)imidazo[1,2-a]pyrazine] | – |
| 2.28 | CCS(=O)(=O)c1ccc(S(=O)(=O)CC)c(-c2cn3cnc(C(F)(F)F)cc3n2)n1 [LXXIII-1, 2-[3,6-Bis(ethylsulphonyl)pyridin-2-yl]-7-(trifluoromethyl)imidazo[1,2-c]pyrimidine] | – |
| 2.23 | CCS(=O)(=O)c1ccc(S(=O)(=O)CC)c(-c2cn3cc(C(F)(F)F)ncc3n2)n1 [LXXIII-2, 2-[3,6-Bis(ethylsulphonyl)pyridin-2-yl]-6-(trifluoromethyl)imidazo[1,2-a]pyrazine] | – |
| 3.25 | CCSc1ccc(C(=O)OC)nc1-c1nc2cc(C(F)(F)F)cnc2n1C [LXXIX-1, Methyl 5-(ethylsulphanyl)-6-[3-methyl-6-(trifluoromethyl)-3H-imidazo[4,5-b]pyridin-2-yl]pyridine-2-carboxylate] | – |
| 2.7 | COC(=O)c1ccc(Cl)c(-c2nc3cc(C(F)(F)F)cnc3n2C)n1 [LXXVIII-1, Methyl 5-chloro-6-[3-methyl-6-(trifluoromethyl)-3H-imidazo[4,5-b]pyridin-2-yl]pyridine-2-carboxylate] | – |
| 2.61 | CCS(=O)(=O)c1ccc(C(=O)OC)nc1-c1nc2cc(C(F)(F)F)cnc2n1C [LXXX-1, Methyl 5-(ethylsulphonyl)-6-[3-methyl-6-(trifluoromethyl)-3H-imidazo[4,5-b]pyridin-2-yl]pyridine-2-carboxylate] | – |
| 2.19 | CCS(=O)(=O)c1ccc(C(=O)OC)nc1-c1nc2cc(C(F)(F)F)nnc2n1C [LXXX-2, Methyl 5-(ethylsulphonyl)-6-[7-methyl-3-(trifluoromethyl)-7H-imidazo[4,5-c]pyridazin-6-yl]pyridine-2-carboxylate] | – |
| 3.44 | CCSc1ccc(F)nc1-c1nc2cc(C(F)(F)F)ccc2n1C [XI-1, 2-[3-(Ethylsulphanyl)-6-fluoropyridin-2-yl]-1-methyl-5-(trifluoromethyl)-1H-benzimidazole] | – |
| 3.45 | CCSc1ccc(F)nc1-c1nc2cc(C(F)(F)F)cnc2n1C [XI-2, 2-[3-(Ethylsulphanyl)-6-fluoropyridin-2-yl]-3-methyl-6-(trifluoromethyl)-3H-imidazo[4,5-b]pyridine] | – |
